# According to patent publication US20240336565A1, “SOLID FORMS OF OSANETANT” (Acer Therapeutics, Inc., priority 2021, published 2024):
# “Also recorded” adds a separate entry of the source. Marks after values point to notes of the source that are not given here.
# How the values were obtained:
# [1] = Long term stability: base (2M NaOH) at ambient temperature; format: physicochemical; conditions: 2M NaOH, dark, ambient, up to 14 days
# Experimental: (§1) Osanetant p-toluenesulfonic acid Form 1 and osanetant benzenesulfonic acid Form 1 were tested for long-term stability across a number of different conditions, as detailed below.
# (§2) Base at Ambient Temperature—Osanetant p-toluenesulfonic acid Form 1 and osanetant benzenesulfonic acid Form 1 were prepared at an osanetant content 10 times the normal working concentration then added to HPLC vials containing 2M NaOH and stored in the dark at ambient laboratory conditions. Samples were diluted to 2 mg/mL for analysis and were taken after T=1, 2, 4, 7, and 14 days storage. […] The purity of the resulting material is described in Table 44: […]
# [2] = Long term stability: oxidation (6% H2O2) at ambient temperature; format: physicochemical; conditions: 6% H2O2, dark, ambient, up to 14 days
# Experimental: as §1
# as §2, with “Oxidation” for “Base”, “Temperature-Osanetant” for “Temperature—Osanetant”, “6% H2O2” for “2M NaOH”, “46:” for “44:”
# [3] = Long term stability: oxidation (6% H2O2) at 60° C.; format: physicochemical; conditions: 6% H2O2, 60° C., up to 14 days
# Experimental: as §1
# as §2, with “Oxidation” for “Base”, “60° C.—Osanetant” for “Ambient Temperature—Osanetant”, “6% H2O2” for “2M NaOH”, “a darkened oven” for “the dark”, “60° C.” for “ambient laboratory conditions.”, “47:” for “44:”
# [4] = Long term stability: thermal stability of solids at 60° C.; format: physicochemical; conditions: solids, darkened oven at 60° C., up to 14 days
# Experimental: as §1
# Thermal stability of solids at 60° C.—Osanetant p-toluenesulfonic acid Form 1 and osanetant benzenesulfonic acid Form 1 were stored in a darkened oven at 60° C. in glass vials. Samples were taken after T=1, 2, 4, 7, and 14 days storage. […] The purity of the resulting material is described in Table 41: […]
# [5] = Long term stability: acid stability (2M HCl) at ambient temperature; format: physicochemical; conditions: 2M HCl, dark, ambient, up to 14 days
# Experimental: as §1
# as §2, with “Acid Stability” for “Base”, “Temperature-Osanetant” for “Temperature—Osanetant”, “HCl” for “NaOH”, “42:” for “44:”
# [6] = Salt screen: XRPD of isolated solids after drying at 40° C. and at 40° C./75% RH; format: physicochemical; conditions: for XRPD after drying at 40° C./75% RH: after 40° C. drying, dried at 40° C./75% RH for about 24 h, label = form after 40° C. drying; for XRPD after drying at 40° C.: isolated solids dried at 40° C. for about 24 h, label = wet form
# Experimental: To approximately 20 mg of amorphous lyophilized osanetant was added 0.3 mL of solvent for liquid counterion experiments. 0.2 mL of solvent was employed for solid counterion experiments. […] To the stirring mixture was then added 1.05 mol eq. of the appropriate counterion. Where solid counterions were used, the vial which contained the counterion was washed in to the osanetant containing vial with 0.1 mL of the appropriate solvent. Additional solvent was added where necessary. The experiments were thermally cycled as follows: heated from 25 to 40° C. at a rate of 0.1° C./min; 1 h at 40° C.; Cool to 5° C. at a rate of 0.1° C.; 1 h at 5° C.; 40° C. at a rate of 0.1° C./min; […] The crystallization experiments were thermally cycled overnight, then slurries were isolated by centrifugation. XRPD analysis was carried out on any isolated solids or gums. The XRPD plate, and the isolated solids, were then dried at 40° C. for about 24 h, and XRPD analysis was repeated. The XRPD plate was then dried at 40° C./75% RH for about 24 h and XRPD analysis was again repeated. All other samples were allowed to evaporated at ambient temperature and pressure.
# [7] = Long term stability: base (2M NaOH) at 60° C.; format: physicochemical; conditions: 2M NaOH, 60° C., up to 14 days
# Experimental: as §1
# as §2, with “60° C.—Osanetant” for “Ambient Temperature—Osanetant”, “a darkened oven” for “the dark”, “60° C.” for “ambient laboratory conditions.”, “45:” for “44:”
# [8] = Solid form stability observations (scale up / polymorph work: drying, ambient conditions, aqueous media); format: physicochemical; conditions: ambient conditions / room temperature and pressure
# Experimental: Two anhydrous forms of the osanetant p-toluenesulfonic acid were synthesized. […] Form 6, described below, was a stable anhydrous form, but hydrated in water and aqueous solvent mixtures.
# Advantageously, Form 1 (hydrate) and Form 6 (anhydrous) were stable on drying. Form 1 re-hydrated at room temperature and pressure after KF analysis, when it was heated in an oven to remove the water.
# The experiment was cooled to 5° C. at a rate of 0.1° C./min and stirred at 5° C. for 18 h. The slurry was isolated be Buchner filtration: 42.5 mm Ø grade 1 Whatman filter paper; fast Filtration (<30 s); the cake was washed with 1 mL of ethyl acetate; the isolated solids were dried at 40° C. under vacuum for 72 h. […]
# [9] = Thermodynamic solubility in water and pH buffers; conditions: for Concentration: 24 h Solubility at 37° C.
# [10] = Comparative studies: 7-day stability; format: physicochemical; conditions: for HPLC Impurity Content: 7 Day Stability
# Experimental: Osanetant p-toluenesulfonic acid Form 1, osanetant benzene sulfonic acid Form 3, osanetant naphthalene-2-sulfonic acid Form 3, and osanetant phosphoric acid Form 7 were compared. Osanetant phosphoric acid Form 7 was obtained when preparation of osanetant phosphoric acid Form 4 was repeated and found to be not reproducible, and Form 7 was determined to be a mixture of hydrates).
# Thus, osanetant benzene sulfonic acid salt Form 1 and osanetant p-toluene sulfonic acid salt Form 1 were identified as advantageous salts.
compound,measurement,setting,value
"CC(=O)N(C)C1(c2ccccc2)CCN(CCC[C@]2(c3ccc(Cl)c(Cl)c3)CCCN(C(=O)c3ccccc3)C2)CC1.O=S(=O)(O)c1ccccc1 [osanetant benzenesulfonic acid Form 1, (R)-N-(1-(3-(1-benzoyl-3-(3,4-dichlorophenyl)piperidin-3-yl)propyl)-4-phenylpiperidin-4-yl)-N-methylacetamide benzenesulfonic acid]",degradation on storage (purity),[1],lack of degradation
same,degradation on storage (purity),[2],lack of degradation
same,degradation on storage (purity),[3],lack of degradation
same,degradation on storage (purity),[4],lack of degradation
same,degradation on storage (purity),[5],lack of degradation
same,XRPD after drying at 40° C./75% RH,[6],retained; also recorded: stable; also recorded: Form 1
same,XRPD after drying at 40° C.,[6],Form 1
same,degradation on storage (purity),[7],lack of degradation
CC(=O)N(C)C1(c2ccccc2)CCN(CCC[C@]2(c3ccc(Cl)c(Cl)c3)CCCN(C(=O)c3ccccc3)C2)CC1.Cc1ccc(S(=O)(=O)O)cc1 [osanetant p-toluenesulfonic acid Form 5],form stability / re-hydration under ambient conditions,[8],rehydrates to Form 1; also recorded: re-hydrated to Form 1; also recorded: hydrated at ambient conditions to Form 1
"CC(=O)N(C)C1(c2ccccc2)CCN(CCC[C@]2(c3ccc(Cl)c(Cl)c3)CCCN(C(=O)c3ccccc3)C2)CC1.O=P(O)(O)O [osanetant phosphoric acid Form 2, (R)-N-(1-(3-(1-benzoyl-3-(3,4-dichlorophenyl)piperidin-3-yl)propyl)-4-phenylpiperidin-4-yl)-N-methylacetamide phosphoric acid]",XRPD after drying at 40° C./75% RH,[6],converted to Pattern 4; also recorded: Form 4*
same,XRPD after drying at 40° C.,[6],Form 2
"CC(=O)N(C)C1(c2ccccc2)CCN(CCC[C@]2(c3ccc(Cl)c(Cl)c3)CCCN(C(=O)c3ccccc3)C2)CC1.O=P(O)(O)O [osanetant phosphoric acid Form 3, (R)-N-(1-(3-(1-benzoyl-3-(3,4-dichlorophenyl)piperidin-3-yl)propyl)-4-phenylpiperidin-4-yl)-N-methylacetamide phosphoric acid]",XRPD after drying at 40° C./75% RH,[6],retained; also recorded: stable; also recorded: Form 3
same,XRPD after drying at 40° C.,[6],Form 3
"CC(=O)N(C)C1(c2ccccc2)CCN(CCC[C@]2(c3ccc(Cl)c(Cl)c3)CCCN(C(=O)c3ccccc3)C2)CC1.O=P(O)(O)O [osanetant phosphoric acid Form 4, (R)-N-(1-(3-(1-benzoyl-3-(3,4-dichlorophenyl)piperidin-3-yl)propyl)-4-phenylpiperidin-4-yl)-N-methylacetamide phosphoric acid]",XRPD after drying at 40° C./75% RH,[6],stable
CC(=O)N(C)C1(c2ccccc2)CCN(CCC[C@]2(c3ccc(Cl)c(Cl)c3)CCCN(C(=O)c3ccccc3)C2)CC1.O=P(O)(O)O [osanetant phosphoric acid Form 7],disproportionation in buffer,[9]; pH 6.8 buffer,Disproportionation was observed
same,solid chemical stability,"[10]; 7-day stability results, overall",Good and best chemical stability
same,solid form on 7-day stability,"[10]; 7 days, elevated temperature where stated",loss in crystallinity at elevated temperature
"CC(=O)N(C)C1(c2ccccc2)CCN(CCC[C@]2(c3ccc(Cl)c(Cl)c3)CCCN(C(=O)c3ccccc3)C2)CC1.O=S(=O)(O)O [osanetant sulfuric acid Form 1, (R)-N-(1-(3-(1-benzoyl-3-(3,4-dichlorophenyl)piperidin-3-yl)propyl)-4-phenylpiperidin-4-yl)-N-methylacetamide sulfuric acid]",XRPD after drying at 40° C.,[6],Form 2
"CC(=O)N(C)C1(c2ccccc2)CCN(CCC[C@]2(c3ccc(Cl)c(Cl)c3)CCCN(C(=O)c3ccccc3)C2)CC1.O=S(=O)(O)O [osanetant sulfuric acid Form 2, (R)-N-(1-(3-(1-benzoyl-3-(3,4-dichlorophenyl)piperidin-3-yl)propyl)-4-phenylpiperidin-4-yl)-N-methylacetamide sulfuric acid]",XRPD after drying at 40° C./75% RH,[6],Form 3*
CC(=O)N(C)C1(c2ccccc2)CCN(CCC[C@]2(c3ccc(Cl)c(Cl)c3)CCCN(C(=O)c3ccccc3)C2)CC1.Cc1ccc(S(=O)(=O)O)cc1 [pTSA Form 6],Concentration,[9]; pH 1.2,45800 ng/mL
same,Concentration,[9]; pH 4.5,63000 ng/mL
same,Concentration,[9]; pH 6.8,35600 ng/mL
same,HPLC Impurity Content,[10]; 40° C./75% RH,0.11 % w/w
same,HPLC Impurity Content,[10]; 80° C.,0.88 % w/w
same,HPLC Impurity Content,[10]; Ambient Light,0.11 % w/w
"(R)-N-(1-(3-(1-benzoyl-3-(3,4-dichlorophenyl)piperidin-3-yl)propyl)-4-phenylpiperidin-4-yl)-N-methylacetamide naphthalene-2-sulfonic acid [osanetant naphthalene-2-sulfonic acid Form 1]",XRPD after drying at 40° C./75% RH,[6],retained; also recorded: stable; also recorded: Form 1
same,XRPD after drying at 40° C.,[6],retained; also recorded: Form 1
"(R)-N-(1-(3-(1-benzoyl-3-(3,4-dichlorophenyl)piperidin-3-yl)propyl)-4-phenylpiperidin-4-yl)-N-methylacetamide naphthalene-2-sulfonic acid [osanetant naphthalene-2-sulfonic acid Form 2]",XRPD after drying at 40° C./75% RH,[6],retained; also recorded: stable; also recorded: Form 2*
same,XRPD after drying at 40° C.,[6],retained; also recorded: Form 2*
"(R)-N-(1-(3-(1-benzoyl-3-(3,4-dichlorophenyl)piperidin-3-yl)propyl)-4-phenylpiperidin-4-yl)-N-methylacetamide naphthalene-2-sulfonic acid [osanetant naphthalene-2-sulfonic acid Form 4]",XRPD after drying at 40° C./75% RH,[6],retained; also recorded: stable; also recorded: Form 4
same,XRPD after drying at 40° C.,[6],retained; also recorded: Form 4
